Assay results reported in ChEMBL document CHEMBL3608237, “Novel inhibitor against Malassezia globosa LIP1 (SMG1), a potential anti-dandruff target” (Bioorg Med Chem Lett, 2015).
The source made the active and inactive calls. No cut-off for these calls is given here.

Columns and labels:
[1] = molecular target: T1, Secreted mono- and diacylglycerol lipase LIP1 (Malassezia globosa (strain ATCC MYA-4612 / CBS 7966)(Dandruff-associated fungus)) (UniProt A8PUY1); test: Competitive inhibition of Malassezia globosa CBS 7966 LIP1 using pNPA substrate by Lineweaver-Burk plot method
T1 sequence (whole entry): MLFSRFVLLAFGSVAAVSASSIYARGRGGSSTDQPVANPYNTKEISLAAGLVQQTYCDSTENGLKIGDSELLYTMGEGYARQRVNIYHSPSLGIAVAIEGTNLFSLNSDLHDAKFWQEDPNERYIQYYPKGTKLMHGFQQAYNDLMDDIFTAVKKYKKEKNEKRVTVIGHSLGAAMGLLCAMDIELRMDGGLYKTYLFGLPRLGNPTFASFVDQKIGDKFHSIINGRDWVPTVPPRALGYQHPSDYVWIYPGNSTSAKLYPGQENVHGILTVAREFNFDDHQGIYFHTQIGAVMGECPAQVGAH

[2] = molecular target: T2, Secreted mono- and diacylglycerol lipase LIP1 (Malassezia globosa (strain ATCC MYA-4612 / CBS 7966)(Dandruff-associated fungus), UniProt A8PUY1); test: Inhibition of Malassezia globosa CBS 7966 LIP1 using pNPA substrate
T2 sequence (A8PUY1 whole entry): T1 sequence (whole entry)

[3] = molecular target: T2, Secreted mono- and diacylglycerol lipase LIP1; test: Inhibition of Malassezia globosa CBS 7966 LIP1 using pNPC substrate
[4] = molecular target: T2, Secreted mono- and diacylglycerol lipase LIP1; test: Inhibition of Malassezia globosa CBS 7966 LIP1 incubated for 1 hr using monoolein substrate

## O=C(O)c1ccc(=S)n(CC(=O)c2ccccc2)c1
[1]
  inhibition: Active
[2]
  IC50: 98.3 µM

## Cc1ccc(C(=O)Oc2ccc3ccc(O)cc3c2)cc1
[1]
  inhibition: Active
[2]
  IC50: 81.8 µM

## O=C(NCCCCCCNC(=O)ON=C1CCCCC1)ON=C1CCCCC1
[1]
  inhibition: Active
[2]
  IC50: 75.2 µM

## O=C1c2ccccc2C(=O)N1CCSC(=S)N1CCCCCC1
[3]
  IC50: 63.6 µM

## O=C1c2ccccc2CN1CCSC(=S)N1CCCC1
[3]
  IC50: 22.9 µM

## O=C1c2ccccc2CN1CCSC(=S)N1CCCCCC1
[4]
  IC50: 0.19 µM
[3]
  IC50: 24.4 µM
[1]
  inhibition: Dose-dependent effect
[2]
  IC50: 20.1 µM

## O=C1c2ccccc2C(=O)N1CCSC(=S)N1CCCC1
[3]
  IC50: > 200 µM

## O=C1c2ccccc2CN1CCSC(=S)N1CCOCC1
[3]
  IC50: > 200 µM

## O=C1c2ccccc2C(=O)N1CCSC(=S)N1CCOCC1
[3]
  IC50: > 200 µM
